Experiments:
[1] = system: SAMD9; assay: SAMD9 RNA expression by qRT-PCR in TERC-transformed fibroblasts; type: cell-based, human; settings: 5 μM, 24 hours, qRT-PCR vs DMSO (FIG. 1C)
Description: TERC-transformed fibroblasts were transformed with a pBABE-H2AGFP construct containing the human telomerase gene were cultured High Glucose DMEM, 10% FCS, L-glutamine and Pen-Strep (all cell culture regents from Biological Industries, Israel). Medium was changed every 2-3 days. Cells were used at passage 2-3.
(§1) Of note, when cells were incubated with CaCx and ApDx (NCI, MA USA), they were grown in the appropriate medium with 0.1% FCS only.
RNA was extracted from cell cultures using an RNA extraction kit (Roche Diagnostics, Mahheim, Germany). cDNA was synthesized from 500 ng of total RNA using the Verso cDNA kit (Thermo Fisher Scientific, Waltham, MA, USA). cDNA PCR amplification was carried out using the Fast SYBR Green Master Mix in a StepOnePlus™ Real-Time PCR System (Applied Biosystems, Foster City, CA, USA) with gene-specific intron-crossing oligonucleotide pairs listed in Table 1 (below). For quantification, standard curves were obtained using serially diluted cDNA amplified in the same qRT-PCR run. The melting temperature (Tm) of the amplified products was measured to confirm the specificity of the reaction conditions. […] Each sample was analyzed in triplicate. mRNA expression level for target gene was normalized to GAPDH. The results are based the amount of target, normalized to an endogenous reference (IACTB) and relative to a calibrator, as calculated by 2-ΔΔCT. […]

[2] = system: EGR1; assay: EGR1 RNA expression by qRT-PCR in primary fibroblasts; type: cell-based, human; settings: 5 μM over 72 hours, different time points (FIG. 3)
Description: Primary fibroblasts were isolated from human adult skin and were grown in High Glucose DMEM, 10% Fetal Bovine Serum, L-glutamine and Pen-Strep. Medium was changed every 2-3 days. Cells were used at passage 2-3.
as §1
RNA was extracted from cell cultures using an RNA extraction kit (Roche Diagnostics, Mahheim, Germany). cDNA was synthesized from 500 ng of total RNA using the Verso cDNA kit (Thermo Fisher Scientific, Waltham, MA, USA). cDNA PCR amplification was carried out using the Fast SYBR Green Master Mix in a StepOnePlus™ Real-Time PCR System (Applied Biosystems, Foster City, CA, USA) with gene-specific intron-crossing oligonucleotide pairs listed in Table 1 (below). For quantification, standard curves were obtained using serially diluted cDNA amplified in the same qRT-PCR run. The melting temperature (Tm) of the amplified products was measured to confirm the specificity of the reaction conditions. […] Each sample was analyzed in triplicate. mRNA expression level for target gene was normalized to GAPDH. The results are based the amount of target, normalized to an endogenous reference (IACTB) and relative to a calibrator, as calculated by 2-ΔΔCT. […] The expression levels of target genes were expressed as mRNA relative units.

[3] = system: imiquimod-induced psoriasiform dermatitis; assay: Imiquimod-induced psoriasiform dermatitis in mice; type: in vivo; settings: for Overt toxicity / Inflammatory infiltrate / Epidermal thickness / Index of proliferation (Ki67): i.p. five times a week, CaCx 22.5 mg/kg or ApDx 7.5 mg/kg; for Overt toxicity: 5 days; for Inflammatory infiltrate: biopsies after 5 days; for Epidermal thickness / Index of proliferation (Ki67): biopsies after 5 days (FIG. 5A); for EGR1 RNA levels in treated skin: quantitative PCR vs vehicle group (FIG. 5B); for EGR1 RNA levels in treated skin / IL-33 RNA levels in treated skin: CaCx 22.5 mg/kg or ApDx 7.5 mg/kg i.p.; for IL-33 RNA levels in treated skin: quantitative PCR vs vehicle group (FIG. 5C)
Description: Balb/c mice (Harlan Laboratories Ltd, Jerusalem, Israel), 9 weeks of age, were maintained in a pathogen-free animal facility. Animal care and research protocols had been approved by the institutional committee for animal use. Imiquimod 5% (Perrigo, Israel) was used as topical treatment for the mice on their upper backs. Mice were injected i.p. five times a week with DMSO or 7.5-22.5 mg/kg of ApDx and CaCx, respectively (NCI). 10% DMSO in […] was used as a vehicle control.
Formaldehyde-fixed 5-μm paraffin-embedded sections from skin biopsies were deparaffinized and treated with 3% H2O2 in methanol for 15 minutes at room temperature, warmed in a microwave oven in citrate buffer in a pressure cooker for 25 minutes, and stained with a monoclonal anti-Ki67 antibody (Thermo Scientific) for 1 hour at room temperature. Following 3 washings (10 minutes each) with phosphate-buffered saline (PBS), the antibodies were imaged using the ABC technique (Zymed Laboratories, South San Francisco, CA) and the slides were counterstained with hematoxylin.
Epidermal thickness was defined as the distance between the granular layer and the basement membrane and was measured at 10 randomly selected locations for each biopsy using NIS-Elements BR 3.2 software (Nikon, NY USA). An image was taken and was manually measured in the software by selecting an upper and lower border, as defined above. The distance was measured in microns.
RNA was extracted from cell cultures using an RNA extraction kit (Roche Diagnostics, Mahheim, Germany). cDNA was synthesized from 500 ng of total RNA using the Verso cDNA kit (Thermo Fisher Scientific, Waltham, MA, USA). cDNA PCR amplification was carried out using the Fast SYBR Green Master Mix in a StepOnePlus™ Real-Time PCR System (Applied Biosystems, Foster City, CA, USA) with gene-specific intron-crossing oligonucleotide pairs listed in Table 1 (below). For quantification, standard curves were obtained using serially diluted cDNA amplified in the same qRT-PCR run. The melting temperature (Tm) of the amplified products was measured to confirm the specificity of the reaction conditions. Cycling conditions were as follows: 95° C. for 10 minutes, 95° C. for 10 seconds, 62° C. for 15 seconds, and 72° C. for 25 seconds for a total of 40 cycles. Each sample was analyzed in triplicate. mRNA expression level for target gene was normalized to GAPDH. The results are based the amount of target, normalized to an endogenous reference (IACTB) and relative to a calibrator, as calculated by 2-ΔΔCT. All samples were run in triplicate. The expression levels of target genes were expressed as mRNA relative units.
This hypothesis was tested in a murine model in which psoriasiform dermatitis was induced using imiquimod [as previously described in Tortola, L. et al. (2012) J Clin Invest 122, 3965-76].
Balb/c mice were treated topically with imiquimod and were injected five times a week i.p. with either the vehicle, 22.5 mg/kg of CaCx or 7.5 mg/kg of ApDx.
After 5 days, biopsies were obtained from the treated skin and stained for hematoxylin and eosin as well as for Ki67 (FIGS. 4A-F), as a surrogate marker for cellular proliferation.

Row | SMILES | SAMD9 expression in TERC-transformed fibroblasts [1] | EGR1 expression in primary fibroblast cells [2] | Overt toxicity [3] | Inflammatory infiltrate [3] | Epidermal thickness [3] | Index of proliferation (Ki67) [3] | EGR1 RNA levels in treated skin [3] | IL-33 RNA levels in treated skin [3]
1 | CCCN1c2ccc(N)cc2S(=O)(=O)c2cc(Cl)cc(Cl)c21 [Compound 629971, 7,9-dichloro-5,5-dioxo-10-propylphenothiazin-3-amine] | significantly induce | significantly down-regulated | No overt toxicity | did not affect | decrease | decrease | significant decrease | significant decrease
2 | Cc1c2ccnc(C(N)=O)c2c(C)c2c1[nH]c1ccccc12.Cl [Compound 335142, 6H-Pyrido[4,3-b]carbazole-1-carboxamide, 5,11-dimethyl-, monohydrochloride] | significantly induce | significantly down-regulated | No overt toxicity | did not affect | decrease | decrease | significant decrease | significant decrease

Source: patent US12023348B2, “EGR1 targeting molecules for the treatment of inflammatory and hyperproliferative conditions” (The Medical Research, Infrastructure and Health Services …, priority 2015, dated 2024)
